Assay results from publication PMC5471454, “Integrative approach for the analysis of the proteome-wide response to bismuth drugs in Helicobacter pylori” (Chemical Science, 2017).

Target: T1, HpDnaK (Hsp70) (Helicobacter pylori, UniProt P55994)
T1 construct: gene dnaK; overexpressed and purified full-length protein; native protein in cells for CETSA
T1 sequence (P55994 2-620): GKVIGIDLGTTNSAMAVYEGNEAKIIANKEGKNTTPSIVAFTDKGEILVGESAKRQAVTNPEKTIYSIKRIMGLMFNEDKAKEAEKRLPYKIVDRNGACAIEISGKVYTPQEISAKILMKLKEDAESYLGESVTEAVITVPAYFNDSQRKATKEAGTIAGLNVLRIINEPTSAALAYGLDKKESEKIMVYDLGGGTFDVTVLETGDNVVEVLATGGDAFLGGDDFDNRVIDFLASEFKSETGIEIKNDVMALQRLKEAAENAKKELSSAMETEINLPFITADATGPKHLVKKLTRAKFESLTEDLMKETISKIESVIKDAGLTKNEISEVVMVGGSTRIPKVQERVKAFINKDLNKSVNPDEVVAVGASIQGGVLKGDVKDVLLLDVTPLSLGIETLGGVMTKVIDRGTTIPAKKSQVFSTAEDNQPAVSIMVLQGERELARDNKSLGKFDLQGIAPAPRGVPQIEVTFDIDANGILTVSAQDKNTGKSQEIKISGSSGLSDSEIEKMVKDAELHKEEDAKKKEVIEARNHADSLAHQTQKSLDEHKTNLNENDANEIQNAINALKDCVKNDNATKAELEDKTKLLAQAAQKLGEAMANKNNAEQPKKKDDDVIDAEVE
Assay: ATPase assay, released phosphate
Format: biochemical
Conditions: no CBS; rate linear within 80 min

## Nc1ncnc2c1ncn2[C@@H]1O[C@H](COP(=O)(O)OP(=O)(O)OP(=O)(O)O)[C@@H](O)[C@H]1O [ATP]
  ATPase assay, released phosphate: rates of ATP hydrolysis measured by monitoring the amounts of released free phosphate
